Consider three molecules from ChEMBL document CHEMBL1126639, “Centrally acting serotonergic and dopaminergic agents. 2. Synthesis and structure-activity relationships of 2,3,3a,4,9,9a-hexahydro-1H-benz[f]indole derivatives” (J Med Chem, 1993).

The target in one test is D(2) dopamine receptor (Rattus norvegicus, UniProt P61169). The test is described as follows: Inhibitory concentration against [3H]raclopride-labeled dopamine receptor D2 in rat striatum. It counts as tissue-based.
Test [1] deals with Mus musculus. The test is described as follows: Effective dose on hypothermia in mouse when administered subcutaneously. It counts as functional.
In test [2] the test system is Mus musculus. The test is described as follows: Effective dose on hypothermia in mouse when administered through peroral route. It counts as functional.
Test [3] relates to Mus musculus. The test is described as follows: Time of effect in the face-to-face behavioral assay in the mouse when a dose of 0.4 umol/kg is administered perorally. It counts as functional.
For test [4], the system named is Mus musculus. The test is described as follows: (§1) Time of effect in the face-to-face behavioral assay in the mouse when a dose of […] is administered perorally. It counts as functional.
The subject of test [5] is Mus musculus. The description is as §1. It counts as functional. The source holds these as a separate data set.
Test [6] concerns Mus musculus. The test is described as follows: Time of effect in the isolation-induced aggression behavioral assay in the mouse when a dose of 1.1 micro mol/kg is administered perorally. It counts as functional.
The subject of test [7] is Mus musculus. The test is described as follows: Time of effect in the isolation-induced aggression behavioral assay in the mouse when a dose of 11 micro mol/kg is administered perorally. It counts as functional.
The subject of test [8] is Mus musculus. The test is described as follows: Time of effect in the isolation-induced aggression behavioral assay in the mouse when a dose of 11 umol/kg is administered intraperitoneally. It counts as functional.
Test [9] concerns Mus musculus. The test is described as follows: Maximum decrease in temperature when compound is administered subcutaneously. It counts as functional.
Test [10] deals with Mus musculus. The test is described as follows: Maximum decrease in temperature when compound is administered through peroral route. It counts as functional.
Test [11] concerns Mus musculus. The test is described as follows: Time of effect in the isolation-induced aggression behavioral assay in the mouse when a dose of 3.6 micro mol/kg is administered perorally. It counts as functional.
Test [12] concerns Mus musculus. The test is described as follows: Time of effect in the isolation-induced aggression behavioral assay in the mouse when a dose of 36 micro mol/kg is administered intraperitoneally. It counts as functional.
The test system of test [13] is Mus musculus. The test is described as follows: Time of effect in the isolation-induced aggression behavioral assay in the mouse when a dose of 36 micro mol/kg is administered perorally. It counts as functional.
The test system of test [14] is Mus musculus. The test is described as follows: Time of effect in the isolation-induced aggression behavioral assay in the mouse when a dose of 0.0 micro mol/kg is administered perorally. It counts as functional.
For test [15], the system named is Mus musculus. The test is described as follows: Time of effect in the isolation-induced aggression behavioral assay in the mouse when a dose of 0.0 umol/kg is administered intraperitoneally. It counts as functional.
The test system of test [16] is Rattus norvegicus. The test is described as follows: Effect on the synthesis rates of dopamine (DOPA accumulation) in the rat ventral limbic brain region at 10.7 uM/kg. It counts as functional, Limbic system.
Test [17] has as its system Rattus norvegicus. The test is described as follows: Effect on the synthesis rates of serotonin (5-HTP accumulation) in the rat ventral limbic brain region 10.7 umol/kg. It counts as functional, Limbic system.
In test [18] the test system is Rattus norvegicus. The test is described as follows: Inhibition of firing rates of dopaminergic neurons in the substantia nigra pars compacta by intravenous injection in rats. It counts as functional.
The test system of test [19] is Rattus norvegicus. The test is described as follows: Inhibition of firing rates of serotonergic neurons in the dorsal raphe nucleus by intravenous injection in rats. It counts as functional.
For test [20], the system named is Mus musculus. The test is described as follows: Antagonism of apomorphine in reserpinized mice when a dose of 33 micro mol/kg is administered intraperitoneally. It counts as functional.
In test [21] the test system is Mus musculus. The test is described as follows: Antagonism of apomorphine in reserpinized mice when a dose of 0.3 micro mol/kg is administered intraperitoneally. It counts as functional.
The test system of test [22] is Mus musculus. The test is described as follows: Antagonism of apomorphine for 10-20 minutes in reserpinized mice when a dose of 3.3 micro mol/kg is administered intraperitoneally. It counts as functional.
In test [23] the test system is Mus musculus. The test is described as follows: Antagonism of apomorphine for 0-10 minutes in reserpinized mice when a dose of 0.3 micro mol/kg is administered intraperitoneally. It counts as functional.
For test [24], the system named is Mus musculus. The test is described as follows: Antagonism of apomorphine for 0-10 minutes in reserpinized mice when a dose of 33 micro mol/kg is administered intraperitoneally. It counts as functional.
For test [25], the system named is Mus musculus. The test is described as follows: Ability to stimulate dopaminergic systems by effect on locomotor activity in reserpinized mice when a dose of 33 micro mol/kg is administered intraperitoneally. It counts as functional.
The subject of test [26] is Mus musculus. The test is described as follows: Antagonism of apomorphine for 0-10 minutes in reserpinized mice when a dose of 3.3 micro mol/kg is administered intraperitoneally. It counts as functional.
Test [27] concerns Mus musculus. The test is described as follows: Ability to stimulate dopaminergic systems by effect on locomotor activity in reserpinized mice when a dose of 0.3 micro mol/kg is administered intraperitoneally. It counts as functional.
For test [28], the system named is Mus musculus. The test is described as follows: Ability to stimulate dopaminergic systems by effect on locomotor activity in reserpinized mice when a dose of 3.3 micro mol/kg is administered intraperitoneally. It counts as functional.
The subject of test [29] is Mus musculus. The test is described as follows: Antagonism of apomorphine for 10-20 minutes in reserpinized mice when a dose of 33 micro mol/kg is administered intraperitoneally. It counts as functional.
The subject of test [30] is Mus musculus. The test is described as follows: Antagonism of apomorphine for 10-20 minutes in reserpinized mice when a dose of 0.3 micro mol/kg is administered intraperitoneally. It counts as functional.
The test system of test [31] is Mus musculus. The test is described as follows: Antagonism of apomorphine in reserpinized mice when a dose of 3.3 micro mol/kg is administered intraperitoneally. It counts as functional.
The test system of test [32] is Mus musculus. The test is described as follows: Antagonism of apomorphine in reserpinized mice when a dose of 2.7 micro mol/kg is administered intraperitoneally. It counts as functional.
In test [33] the test system is Mus musculus. The test is described as follows: Antagonism of apomorphine for 10-20 minutes in reserpinized mice when a dose of 2.7 micro mol/kg is administered intraperitoneally. It counts as functional.
Test [34] deals with Mus musculus. The test is described as follows: Antagonism of apomorphine for 0-10 minutes in reserpinized mice when a dose of 2.7 micro mol/kg is administered intraperitoneally. It counts as functional.
Test [35] deals with Mus musculus. The test is described as follows: Ability to stimulate dopaminergic systems by effect on locomotor activity in reserpinized mice when a dose of 2.7 micro mol/kg is administered intraperitoneally. It counts as functional.
The subject of test [36] is Rattus norvegicus. The test is described as follows: Effect on the synthesis rates of serotonin in the rat ventral limbic brain region 2.7 micro mol/kg. It counts as functional, Limbic system.
For test [37], the system named is Rattus norvegicus. The test is described as follows: Effect on the synthesis rates of dopamine in the rat ventral limbic brain region at 2.7 micro mol/kg. It counts as functional, Limbic system.

Structures are written as SMILES.

Chain of D(2) dopamine receptor (P61169 whole entry): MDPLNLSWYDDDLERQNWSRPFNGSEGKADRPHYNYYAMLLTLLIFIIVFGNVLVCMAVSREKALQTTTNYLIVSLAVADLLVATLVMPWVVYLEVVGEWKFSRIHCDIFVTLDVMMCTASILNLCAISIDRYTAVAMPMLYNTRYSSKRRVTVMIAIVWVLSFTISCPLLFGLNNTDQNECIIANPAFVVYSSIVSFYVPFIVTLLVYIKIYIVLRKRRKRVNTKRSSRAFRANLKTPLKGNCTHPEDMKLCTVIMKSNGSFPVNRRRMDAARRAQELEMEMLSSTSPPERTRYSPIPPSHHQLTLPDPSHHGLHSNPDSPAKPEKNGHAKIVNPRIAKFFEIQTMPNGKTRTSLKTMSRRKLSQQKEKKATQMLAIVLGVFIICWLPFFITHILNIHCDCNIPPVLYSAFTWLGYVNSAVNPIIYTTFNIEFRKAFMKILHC

In the case of `C=CCN1CC[C@@H]2Cc3c(cccc3OC)C[C@H]21`, at D(2) dopamine receptor, the IC50 was over 1000 nM. Further, the ED50 with Mus musculus [1] turned out to be 0.6 µM/kg; in the test with Mus musculus [2], 1.1 µM/kg; in the test with Rattus norvegicus [18], 0.05 µmol/kg; in the test with Rattus norvegicus [19], 0.08 µM/kg. The Time in the test with Mus musculus [3] was 1.7 s; in the test with Mus musculus [4], 1 s; with Mus musculus [5], 1.5 s; in the test on Mus musculus [6] it was 109 s; with Mus musculus [7] it was 257 s; in the test with Mus musculus [8], 570 s. Moreover, the Time in the test on Mus musculus [11] turned out to be 198 s; with Mus musculus [12], 600 s; in the test with Mus musculus [13] it was 397 s; in the test on Mus musculus [14] it was 5 s; in the test with Mus musculus [15] it was 5 s. The Max temperature decrease is given as 4.5 with Mus musculus [9] and 5.6 in the test on Mus musculus [10]. In addition, the values for the Control in the test on Rattus norvegicus [16] and in the test on Rattus norvegicus [17] were -37% and -41%, respectively.
Regarding `CCCN1CCCC(c2cccc(O)c2)C1` (single isomer, unassigned; (-)), the Locomotor activity stood at 41 in the test with Mus musculus [20]; 118 in the test on Mus musculus [21]; 83 with Mus musculus [22]; 127 with Mus musculus [23]; 59 in the test on Mus musculus [24]; 13 with Mus musculus [25]. The Locomotor activity in the test on Mus musculus [26] is listed as 91; in the test on Mus musculus [27], 31; in the test on Mus musculus [28] it was 8; in the test with Mus musculus [29], 58; with Mus musculus [30] it was 106; in the test with Mus musculus [31], 106.
As to `O=C(CCCN1CCC(O)(c2ccc(Cl)cc2)CC1)c1ccc(F)cc1` [HALOPERIDOL], the Locomotor activity in the test with Mus musculus [21] is listed as 58; in the test with Mus musculus [32] it was 10; in the test with Mus musculus [33], 28; in the test with Mus musculus [34], 72; in the test with Mus musculus [23], 94; in the test on Mus musculus [27], 9. Also, the Locomotor activity in the test with Mus musculus [35] is recorded as 1; with Mus musculus [30] it was 71. Also, the Control in the test with Rattus norvegicus [36] is reported as -6.6%; in the test on Rattus norvegicus [37], 144%. In addition, the ED50 was 0.018 µmol/kg in the test with Rattus norvegicus [18] and 0.019 µmol/kg with Rattus norvegicus [19] (Rattus norvegicus, Dorsal raphe nucleus, iv, read-out: ED50).
